Experimental data as given in paper PMC8080777, “Discovery, optimization, and evaluation of non-bile acid FXR/TGR5 dual agonists” (Scientific Reports, 2021).

Assays:
[1] = tested on: SHP mRNA; test: In vivo FXR assay: SHP mRNA in mice liver by real-time PCR; conditions: CDAHFD-fed C57BL/6J mice, single oral dose 100, 30 and 10 mg/kg, liver four hours after administration
Method: (§1) Test compounds were orally administered to 7-week old male C57BL/6J mice (Nippon Charles River Co., Ltd., Yokohama City, Kanagawa, Japan), that were administered CDAHFD (#A06071302, Research Diets, 20 Jules Lane, New Brunswick, NJ, USA) consisting 60 kcal% fat and 0.1% methionine by weight for 7 days. After four hours of administration, the liver was removed, and total RNA was extracted using a Pure Link RNA Mini Kit (Invitrogen, Thermo Fisher Scientific K. K., Minato-ku, Tokyo, Japan). The concentration of total RNA was measured using Micro Sample Spectrophotometer (SimpliNano, GE Healthcare UK Ltd, Amersham Place Little Chalfont Buckinghamshire, HP7 9NA UK), and cDNA was synthesized using ReverTra Ace qPCR RT Master Mix (Toyobo Co., Ltd., Osaka City, Osaka, Japan). Real-time PCR was performed using a CFX96 Touch Real-Time PCR Analysis System (CFX Manager, Bio-Rad, 1000 Alfred Nobel Drive, Hercules, CA, USA), and the mRNA expression levels of SHP and CYP7A1, the target genes of FXR, were measured using the intercalator method.
(§2) S4. In vitro, in vivo assay, and selectvity.
(§3) To directly evaluate the in vitro agonist activity towards FXR, test compounds were evaluated in CHO cells transfected with FXR responsive luciferase reporter (Nuclear Receptor & In Vitro Toxicology Solutions, Indigo Biosciences, State College, PA, USA). […]

[2] = tested on: CYP7A1; test: In vivo FXR assay: CYP7A1 in mice liver by real-time PCR; conditions: CDAHFD-fed C57BL/6J mice, single oral dose 30 and 10 mg/kg, liver four hours after administration
Method: as §1, §2, §3

[3] = target: T1, PPAR alpha (Homo sapiens, UniProt Q07869); test: Selectivity, NR functional assay; type: cell-based
T1 construct: Eurofine Cerep / Eurofine Panlabs Discovery Services
Excerpt: (§4) Compound 20p was screened against a broad panel of NRs and GPCRs to determine its agonist activity in vitro. […]
(§5) The selectivity tests of compound 20p were investigated by Eurofine Cerep (86600, Celle-Levescault, France) and Eurofine Panlabs Discovery Services (No. 25, Wugong, 6th Road, Wugu District, New Taipai City, Taiwan). Compound binding was caluculated as a % inhibition of the binding of radioactively labeled ligand specific for each target. Cellular agonist effect wa calculated as a % of control response to a known reference agonist for each target and cellular antagonist effect as caluculated as a % inhibition of control reference agonist response for each target at 30 µM of compound 20p.
(§6) 12.3%; CAR -2.5%, PPAR alpha 0.0%; PPAR delta -3.6%; PPAR gamma -1.0%; PXR 4.5%; ER alpha -16.6%; ER beta 17% at 30 µM.

[4] = target: T2, CAR (Homo sapiens, UniProt Q14994); test: Selectivity, NR functional assay; type: cell-based
T2 construct: Eurofine Cerep / Eurofine Panlabs Discovery Services
Excerpt: as §4, §5, §6

[5] = target: T3, PPAR delta (Homo sapiens, UniProt Q03181); test: Selectivity, NR functional assay; type: cell-based
T3 construct: Eurofine Cerep / Eurofine Panlabs Discovery Services
Excerpt: as §4, §5, §6

[6] = target: T4, LXR alpha (Homo sapiens, UniProt Q13133); test: Selectivity, NR functional assay; type: cell-based
T4 construct: Eurofine Cerep / Eurofine Panlabs Discovery Services
Excerpt: as §4, §5, §6

[7] = target: T5, PXR (Homo sapiens, UniProt O75469); test: Selectivity, NR functional assay; type: cell-based
T5 construct: Eurofine Cerep / Eurofine Panlabs Discovery Services
Excerpt: as §4, §5, §6

[8] = target: T6, PPAR gamma (Homo sapiens, UniProt P37231); test: Selectivity, NR functional assay; type: cell-based
T6 construct: Eurofine Cerep / Eurofine Panlabs Discovery Services
Excerpt: as §4, §5, §6

[9] = target: T7, LXR beta (Homo sapiens, UniProt P55055); test: Selectivity, NR functional assay; type: cell-based
T7 construct: Eurofine Cerep / Eurofine Panlabs Discovery Services
Excerpt: as §4, §5, §6

T5 sequence (O75469 whole entry): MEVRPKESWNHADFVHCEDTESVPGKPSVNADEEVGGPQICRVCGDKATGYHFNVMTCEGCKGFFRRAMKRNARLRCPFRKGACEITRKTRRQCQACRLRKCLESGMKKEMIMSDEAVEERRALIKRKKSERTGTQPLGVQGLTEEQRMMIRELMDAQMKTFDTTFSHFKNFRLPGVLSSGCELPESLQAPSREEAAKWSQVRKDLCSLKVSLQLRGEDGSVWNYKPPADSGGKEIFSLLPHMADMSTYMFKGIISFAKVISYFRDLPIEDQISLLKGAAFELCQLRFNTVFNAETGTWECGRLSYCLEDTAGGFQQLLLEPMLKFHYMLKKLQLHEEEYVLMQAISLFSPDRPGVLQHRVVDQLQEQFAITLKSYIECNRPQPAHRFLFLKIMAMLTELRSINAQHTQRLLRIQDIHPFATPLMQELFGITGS
T1 sequence (Q07869 whole entry): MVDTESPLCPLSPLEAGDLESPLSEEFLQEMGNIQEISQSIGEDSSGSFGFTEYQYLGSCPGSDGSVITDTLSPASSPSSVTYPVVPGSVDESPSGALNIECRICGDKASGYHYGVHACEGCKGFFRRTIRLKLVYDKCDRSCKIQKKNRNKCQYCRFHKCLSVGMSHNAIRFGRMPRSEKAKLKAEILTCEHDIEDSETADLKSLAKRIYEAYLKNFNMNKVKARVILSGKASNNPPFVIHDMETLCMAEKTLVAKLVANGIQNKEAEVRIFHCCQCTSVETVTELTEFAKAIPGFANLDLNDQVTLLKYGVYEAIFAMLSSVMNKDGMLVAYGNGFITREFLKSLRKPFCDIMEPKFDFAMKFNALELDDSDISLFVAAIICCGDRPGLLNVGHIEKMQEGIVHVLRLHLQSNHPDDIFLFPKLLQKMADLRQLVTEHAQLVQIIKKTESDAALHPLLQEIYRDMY
T4 sequence (Q13133 whole entry): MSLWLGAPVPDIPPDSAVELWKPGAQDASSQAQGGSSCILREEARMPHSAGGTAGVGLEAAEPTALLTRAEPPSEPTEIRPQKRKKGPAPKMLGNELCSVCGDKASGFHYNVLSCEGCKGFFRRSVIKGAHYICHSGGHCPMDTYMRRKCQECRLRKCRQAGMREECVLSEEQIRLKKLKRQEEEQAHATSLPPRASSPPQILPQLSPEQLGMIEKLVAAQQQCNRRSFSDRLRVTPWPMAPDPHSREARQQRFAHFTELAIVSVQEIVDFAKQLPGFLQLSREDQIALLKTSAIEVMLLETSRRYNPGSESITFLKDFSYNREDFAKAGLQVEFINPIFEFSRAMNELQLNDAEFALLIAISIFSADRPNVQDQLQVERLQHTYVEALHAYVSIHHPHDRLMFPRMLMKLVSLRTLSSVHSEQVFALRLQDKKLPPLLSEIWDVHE
T7 sequence (P55055 whole entry): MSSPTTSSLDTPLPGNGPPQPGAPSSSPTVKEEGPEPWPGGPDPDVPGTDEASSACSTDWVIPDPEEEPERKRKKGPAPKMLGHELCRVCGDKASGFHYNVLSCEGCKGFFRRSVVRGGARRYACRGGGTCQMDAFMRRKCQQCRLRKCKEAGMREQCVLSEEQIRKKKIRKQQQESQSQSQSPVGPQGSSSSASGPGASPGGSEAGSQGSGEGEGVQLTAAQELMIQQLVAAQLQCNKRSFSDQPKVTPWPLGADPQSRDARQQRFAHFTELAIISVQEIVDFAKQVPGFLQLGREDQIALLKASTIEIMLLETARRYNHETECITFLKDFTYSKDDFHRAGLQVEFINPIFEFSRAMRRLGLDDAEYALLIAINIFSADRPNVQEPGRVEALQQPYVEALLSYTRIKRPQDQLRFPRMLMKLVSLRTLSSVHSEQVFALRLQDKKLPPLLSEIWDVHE
T6 sequence (P37231 whole entry): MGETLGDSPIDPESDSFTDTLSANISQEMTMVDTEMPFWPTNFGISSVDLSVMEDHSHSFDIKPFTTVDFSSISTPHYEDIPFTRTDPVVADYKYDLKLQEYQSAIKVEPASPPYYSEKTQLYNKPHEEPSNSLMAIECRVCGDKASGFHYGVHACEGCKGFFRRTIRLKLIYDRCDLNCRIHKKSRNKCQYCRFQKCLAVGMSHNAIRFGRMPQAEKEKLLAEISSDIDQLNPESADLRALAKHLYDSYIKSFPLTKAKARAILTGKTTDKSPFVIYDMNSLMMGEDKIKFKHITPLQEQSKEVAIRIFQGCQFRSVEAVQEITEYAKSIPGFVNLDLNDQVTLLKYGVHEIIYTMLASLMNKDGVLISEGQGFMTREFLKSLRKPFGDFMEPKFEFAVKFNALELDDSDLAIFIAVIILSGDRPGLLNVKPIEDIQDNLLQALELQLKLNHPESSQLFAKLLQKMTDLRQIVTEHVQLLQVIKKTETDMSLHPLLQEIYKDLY
T3 sequence (Q03181 whole entry): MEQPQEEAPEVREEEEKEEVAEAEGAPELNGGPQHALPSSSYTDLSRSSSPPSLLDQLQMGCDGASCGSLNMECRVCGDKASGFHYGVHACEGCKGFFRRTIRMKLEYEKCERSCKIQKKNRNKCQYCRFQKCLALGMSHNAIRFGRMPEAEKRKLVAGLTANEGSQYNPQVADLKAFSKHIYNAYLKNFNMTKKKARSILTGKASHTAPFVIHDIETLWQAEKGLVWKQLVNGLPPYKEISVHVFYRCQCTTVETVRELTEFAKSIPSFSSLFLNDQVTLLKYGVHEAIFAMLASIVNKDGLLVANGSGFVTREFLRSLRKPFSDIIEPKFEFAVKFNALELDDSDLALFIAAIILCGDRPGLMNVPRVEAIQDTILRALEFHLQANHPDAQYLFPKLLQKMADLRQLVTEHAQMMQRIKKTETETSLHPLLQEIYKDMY
T2 sequence (Q14994 whole entry): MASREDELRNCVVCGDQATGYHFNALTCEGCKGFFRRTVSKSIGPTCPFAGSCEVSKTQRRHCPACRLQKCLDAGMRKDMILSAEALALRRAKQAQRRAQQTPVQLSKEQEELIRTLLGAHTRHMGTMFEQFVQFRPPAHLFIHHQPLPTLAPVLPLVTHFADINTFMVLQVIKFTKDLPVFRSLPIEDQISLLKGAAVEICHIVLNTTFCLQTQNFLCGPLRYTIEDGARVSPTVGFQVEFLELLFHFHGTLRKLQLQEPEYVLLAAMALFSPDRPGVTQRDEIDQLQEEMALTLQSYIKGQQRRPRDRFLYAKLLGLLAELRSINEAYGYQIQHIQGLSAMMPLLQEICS

Row | Compound | Induction of SHP mRNA in the liver [1] | Repression of CYP7A1 in the liver [2] | activity at 30 µM ([3]; 30 µM, read-out: PPAR alpha agonist effect, % of control response to reference agonist) [%] | EC50 ([3]; NR functional assay) [µM] | activity at 30 µM ([4]; 30 µM, read-out: CAR agonist effect, % of control response to reference agonist) [%] | EC50 ([4]; NR functional assay) [µM] | activity at 30 µM ([5]; 30 µM, read-out: PPAR delta agonist effect, % of control response to reference agonist) [%] | EC50 ([5]; NR functional assay) [µM] | activity at 30 µM ([6]; 30 µM, read-out: LXR alpha agonist effect, % of control response to reference agonist) [%] | EC50 ([6]; NR functional assay) [µM] | activity at 30 µM ([7]; 30 µM, read-out: PXR agonist effect, % of control response to reference agonist) [%] | EC50 ([7]; NR functional assay) [µM] | activity at 30 µM ([8]; 30 µM, read-out: PPAR gamma agonist effect, % of control response to reference agonist) [%] | EC50 ([8]; NR functional assay) [µM] | activity at 30 µM ([9]; 30 µM, read-out: LXR beta agonist effect, % of control response to reference agonist) [%] | EC50 ([9]; NR functional assay) [µM]
1 | COc1cc(Cl)cc(N(CC23CCC(c4ccc(OC)c(C#N)c4)(CC2)CC3)C(=O)c2ccncc2C)c1 [Compound 20p] | dose-dependently induced SHP mRNA in the liver | decreased CYP7A1 in the liver | 0 | > 30 | -2.5 | > 30 | -3.6 | > 30 | 0.2 | > 30 | 4.5 | > 30 | -1 | > 30 | 3.7 | > 30
2 | COc1ccc(C23CCC(CN(C(=O)c4ccncc4C)c4cc(Cl)cc(Cl)c4)(CC2)CC3)cc1C#N [Compound 20q] | dose-dependently induced SHP mRNA in the liver | decreased CYP7A1 in the liver |  |  |  |  |  |  |  |  |  |  |  |  |  | 
